Assay results taken from patent US12703704B2, “Process for preparing a composition comprising enantiomerically enriched pyrrolo[2,3-d]pyrimidines” (Sun Pharmaceutical Industries, Inc., priority 2020, dated 2026).

Tests used:
JAK2 = JAK2 (Homo sapiens, UniProt O60674); test: JAK2 inhibition (IC50); assay type: biochemical; conditions: Compound A or a pharmaceutically acceptable salt thereof
JAK1 = JAK1 (Homo sapiens, UniProt P23458); test: JAK1 inhibition (IC50); assay type: biochemical; conditions: Compound A or a pharmaceutically acceptable salt thereof
Chain of JAK1 (P23458 whole entry): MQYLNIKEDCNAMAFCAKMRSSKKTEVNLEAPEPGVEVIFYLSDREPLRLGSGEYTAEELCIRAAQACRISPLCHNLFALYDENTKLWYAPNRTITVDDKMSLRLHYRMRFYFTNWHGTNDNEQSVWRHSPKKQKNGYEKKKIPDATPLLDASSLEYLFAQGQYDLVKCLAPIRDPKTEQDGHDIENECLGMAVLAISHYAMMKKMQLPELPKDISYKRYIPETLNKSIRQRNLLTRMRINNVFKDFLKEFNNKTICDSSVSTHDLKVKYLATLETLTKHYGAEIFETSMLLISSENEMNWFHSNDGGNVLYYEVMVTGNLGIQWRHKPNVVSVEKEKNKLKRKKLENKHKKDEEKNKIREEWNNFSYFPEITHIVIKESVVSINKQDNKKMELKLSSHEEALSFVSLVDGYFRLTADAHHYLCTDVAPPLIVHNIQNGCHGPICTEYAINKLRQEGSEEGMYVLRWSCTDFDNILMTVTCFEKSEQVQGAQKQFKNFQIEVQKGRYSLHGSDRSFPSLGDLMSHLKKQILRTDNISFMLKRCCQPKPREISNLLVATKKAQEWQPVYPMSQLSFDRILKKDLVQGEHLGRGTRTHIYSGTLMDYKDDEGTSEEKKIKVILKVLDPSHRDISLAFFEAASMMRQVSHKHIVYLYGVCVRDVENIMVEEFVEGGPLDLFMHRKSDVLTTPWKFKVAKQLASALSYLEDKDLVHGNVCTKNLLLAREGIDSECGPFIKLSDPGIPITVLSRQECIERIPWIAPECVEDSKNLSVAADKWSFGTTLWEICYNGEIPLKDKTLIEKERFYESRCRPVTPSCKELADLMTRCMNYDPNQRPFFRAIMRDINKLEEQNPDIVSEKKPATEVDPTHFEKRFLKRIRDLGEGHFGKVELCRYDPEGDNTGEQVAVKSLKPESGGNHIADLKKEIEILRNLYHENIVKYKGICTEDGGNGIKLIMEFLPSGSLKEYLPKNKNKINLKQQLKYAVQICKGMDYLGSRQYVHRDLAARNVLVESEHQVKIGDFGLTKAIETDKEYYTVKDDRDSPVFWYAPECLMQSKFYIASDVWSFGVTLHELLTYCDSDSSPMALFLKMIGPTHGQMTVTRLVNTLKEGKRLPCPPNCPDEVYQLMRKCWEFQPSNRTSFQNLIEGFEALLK

Chain of JAK2 (O60674 whole entry): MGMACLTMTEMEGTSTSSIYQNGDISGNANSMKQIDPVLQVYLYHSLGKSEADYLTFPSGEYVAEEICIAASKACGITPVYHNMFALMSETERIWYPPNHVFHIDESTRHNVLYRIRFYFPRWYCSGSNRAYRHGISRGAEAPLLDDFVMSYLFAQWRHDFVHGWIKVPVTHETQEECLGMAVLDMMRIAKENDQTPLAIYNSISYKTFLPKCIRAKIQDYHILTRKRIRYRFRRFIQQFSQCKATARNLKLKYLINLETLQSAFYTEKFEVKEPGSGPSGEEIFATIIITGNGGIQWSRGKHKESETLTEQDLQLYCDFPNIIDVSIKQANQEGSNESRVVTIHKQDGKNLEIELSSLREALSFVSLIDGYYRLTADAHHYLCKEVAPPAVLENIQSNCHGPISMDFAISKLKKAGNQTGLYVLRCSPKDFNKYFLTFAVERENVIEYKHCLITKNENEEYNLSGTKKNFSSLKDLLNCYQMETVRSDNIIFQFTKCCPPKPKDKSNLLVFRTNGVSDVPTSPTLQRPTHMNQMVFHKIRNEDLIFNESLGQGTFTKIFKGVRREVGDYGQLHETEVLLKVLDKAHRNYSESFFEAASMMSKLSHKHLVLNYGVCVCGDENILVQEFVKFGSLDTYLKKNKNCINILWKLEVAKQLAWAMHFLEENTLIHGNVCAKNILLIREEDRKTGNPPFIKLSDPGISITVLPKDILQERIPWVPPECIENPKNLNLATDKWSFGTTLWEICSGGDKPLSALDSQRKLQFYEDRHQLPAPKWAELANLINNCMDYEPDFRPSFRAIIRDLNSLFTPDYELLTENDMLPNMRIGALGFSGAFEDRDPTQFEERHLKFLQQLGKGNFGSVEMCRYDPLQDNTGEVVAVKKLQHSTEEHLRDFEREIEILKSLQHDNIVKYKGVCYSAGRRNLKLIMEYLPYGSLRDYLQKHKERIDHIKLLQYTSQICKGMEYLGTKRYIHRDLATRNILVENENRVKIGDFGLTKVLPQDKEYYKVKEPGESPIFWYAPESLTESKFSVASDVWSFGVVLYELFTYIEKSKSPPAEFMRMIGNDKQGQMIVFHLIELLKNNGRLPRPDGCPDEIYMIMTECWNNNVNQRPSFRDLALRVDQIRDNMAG

## [2H]C1([2H])C([C@@H](CC(N)=O)n2cc(-c3ncnc4[nH]ccc34)cn2)C([2H])([2H])C([2H])([2H])C1([2H])[2H] [Compound A, (R)-3-(4-(7H-pyrrolo[2,3-d]pyrimidin-4-yl)-1H-pyrazol-1-yl)-3-(cyclopentyl-2,2,3,3,4,4,5,5-d8) propanamide]
JAK2
  IC50: < 100 nM
JAK1
  IC50: < 100 nM
